Experimental data: EPA's ToxRefDB 2

Legend:
rat [1] = settings: Fertility (Segment I), sprague dawley, Oral, Gavage/Intubation, dose end: 7 GD
rat [2] = settings: Fertility (Segment I), sprague dawley, Oral, Gavage/Intubation, dose end: 7 GD; remark: listed apart in the source
rat [3] = settings: Prenatal developmental toxicity study, sprague dawley, Oral, Gavage/Intubation, dose end: 17 GD
rat [4] = settings: Sub-acute repeat dose toxicity, sprague dawley, Oral, Gavage/Intubation, dose end: 4 week, group: systemic
rat [5] = settings: Prenatal developmental toxicity study, sprague dawley, Oral, Gavage/Intubation, dose end: 17 GD; remark: listed apart in the source
dog = settings: Sub-acute repeat dose toxicity, beagle, Oral, Capsule, dose end: 1 month, group: systemic
rabbit [6] = settings: Prenatal developmental toxicity study, new zealand white, Oral, Gavage/Intubation, dose end: 19 GD
rat [7] = settings: Prenatal developmental toxicity study; sprague dawley; Oral; Gavage/Intubation; dose end: 17 GD; group: maternal; systemic / in life observation / body weight / body weight + systemic / in life observation / body weight / body weight gain + systemic / in…
rabbit [8] = settings: Prenatal developmental toxicity study; new zealand white; Oral; Gavage/Intubation; dose end: 19 GD; group: maternal; systemic / in life observation / body weight / body weight gain + systemic / in life observation / food consumption / food consumption
mouse = settings: Subchronic oral toxicity in rodents, b6c3f1, Feed, dose end: 13 week, group: systemic
rat [9] = settings: Subchronic oral toxicity in rodents, fischer, Feed, dose end: 13 week, group: systemic, systemic / in life observation / body weight / body weight + systemic / in life observation / body weight / body weight gain + systemic / in…
[10] = group: maternal, reproductive / reproductive performance / estrous cycle / abnormal + reproductive / reproductive performance / estrous cycle / corpora lutea…
[11] = group: parental, systemic / in life observation / body weight / body weight + systemic / in life observation / body weight / body weight gain
[12] = group: parental, systemic / in life observation / body weight / body weight + systemic / in life observation / body weight / body weight gain + systemic / in…
[13] = group: maternal, reproductive / reproductive performance / estrous cycle / abnormal
[14] = group: parental, systemic / in life observation / body weight / body weight gain
[15] = group: parental, systemic / in life observation / body weight / body weight gain + systemic / in life observation / food consumption / food consumption
[16] = group: developmental, developmental / developmental malformation / trunk / absent genital tubercle + developmental / developmental malformation / trunk / anal …
[17] = group: maternal, systemic / in life observation / body weight / body weight + systemic / in life observation / body weight / body weight gain + systemic / in…
[18] = systemic / clinical chemistry / alanine aminotransferase (alt/sgpt) / alanine aminotransferase (alt/sgpt) + systemic / in life observation…
[19] = systemic / organ weight / salivary glands / absolute + systemic / pathology microscopic / vagina / diestrus
[20] = group: developmental, developmental / developmental malformation / bone / unossified + systemic / in life observation / body weight / fetal weight
[21] = systemic / in life observation / clinical signs / defecation (diarrhea)
[22] = systemic / in life observation / clinical signs / defecation (diarrhea) + systemic / clinical chemistry / alanine aminotransferase (alt/sgpt…
[23] = group: developmental, developmental / developmental malformation / bone / incomplete ossification + developmental / developmental malformation / bone / unossified…
[24] = group: maternal, systemic / in life observation / body weight / body weight gain + systemic / in life observation / food consumption / food consumption
[25] = group: maternal, systemic / in life observation / body weight / body weight gain + systemic / in life observation / food consumption / food consumption + …
[26] = systemic / organ weight / liver / relative to body weight + systemic / pathology microscopic / liver / pigmentation

CN(C)C(=O)NC1(c2ccccc2)CCN(CC[C@@]2(c3ccc(F)c(F)c3)CN(C(=O)c3ccccc3)CCO2)CC1.Cl
LEL (rat [1]; [10]): 250 mg/kg/day | LOAEL (rat [1]; [10]): > 250 mg/kg/day | NEL (rat [1]; [10]): 70 mg/kg/day | NOAEL (rat [1]; [10]): ≥ 250 mg/kg/day | LEL (rat [1]; [11]): 70 mg/kg/day | LOAEL (rat [1]; [11]): 70 mg/kg/day | NEL (rat [1]; [12]): 20 mg/kg/day | NOAEL (rat [1]; [12]): 20 mg/kg/day | LEL (rat [2]; [13]): 20 mg/kg/day | LOAEL (rat [2]; [13]): 100 mg/kg/day | NEL (rat [2]; [13]): < 20 mg/kg/day | NOAEL (rat [2]; [10]): 20 mg/kg/day | LEL (rat [2]; [14]): 20 mg/kg/day | NEL (rat [2]; [14]): < 20 mg/kg/day | LOAEL (rat [2]; [15]): 100 mg/kg/day | NOAEL (rat [2]; [15]): 20 mg/kg/day | LEL (rat [3]; [16]): 500 mg/kg/day | LOAEL (rat [3]; [16]): 500 mg/kg/day | NEL (rat [3]; [16]): 100 mg/kg/day | NOAEL (rat [3]; [16]): 100 mg/kg/day | LOAEL (rat [3]; [17]): 500 mg/kg/day | NEL (rat [3]; [17]): 20 mg/kg/day | NOAEL (rat [3]; [17]): 100 mg/kg/day | LEL (rat [3]; group: maternal, systemic / in life observation / clinical signs / piloerection + systemic / pathology gross / kidney / reduced size): 100 mg/kg/day | LOAEL (rat [4]; [18]): 100 mg/kg/day | NOAEL (rat [4]; [18]): 20 mg/kg/day | LEL (rat [4]; [19]): 20 mg/kg/day | NEL (rat [4]; [19]): < 20 mg/kg/day | LEL (rat [5]; [20]): 250 mg/kg/day | LOAEL (rat [5]; [20]): 250 mg/kg/day | NEL (rat [5]; [20]): 70 mg/kg/day | NOAEL (rat [5]; [20]): 70 mg/kg/day | LEL (rat [5]; [17]): 250 mg/kg/day | LOAEL (rat [5]; [17]): 250 mg/kg/day | NEL (rat [5]; [17]): 70 mg/kg/day | NOAEL (rat [5]; [17]): 70 mg/kg/day | LEL (dog; [21]): 20 mg/kg/day | NEL (dog; [21]): < 20 mg/kg/day | LOAEL (dog; [22]): > 180 mg/kg/day | NOAEL (dog; [22]): ≥ 180 mg/kg/day | LEL (rabbit [6]; [23]): 200 mg/kg/day | LOAEL (rabbit [6]; [23]): 200 mg/kg/day | NEL (rabbit [6]; [23]): 60 mg/kg/day | NOAEL (rabbit [6]; [23]): 60 mg/kg/day | LEL (rabbit [6]; [24]): 60 mg/kg/day | LOAEL (rabbit [6]; [24]): 60 mg/kg/day | NEL (rabbit [6]; [25]): 20 mg/kg/day | NOAEL (rabbit [6]; [25]): 20 mg/kg/day | LEL (rat [7]): 250 mg/kg/day | LOAEL (rat [7]): > 250 mg/kg/day | NEL (rat [7]): < 250 mg/kg/day | NOAEL (rat [7]): ≥ 250 mg/kg/day | LEL (rabbit [8]): 100 mg/kg/day | LOAEL (rabbit [8]): > 200 mg/kg/day | NEL (rabbit [8]): 20 mg/kg/day | NOAEL (rabbit [8]): ≥ 200 mg/kg/day

Nc1c(Br)cc(Br)c2c1C(=O)c1ccccc1C2=O [1-Amino-2,4-dibromoanthraquinone]
LEL (mouse; [26]): 500 mg/kg/day | NEL (mouse; [26]): < 500 mg/kg/day | LOAEL (mouse; systemic / pathology microscopic / liver / hypertrophy): 1850 mg/kg/day | NOAEL (mouse; systemic / pathology microscopic / liver / hypertrophy + systemic / in life observation / body weight / body weight gain + systemic / in …): 1080 mg/kg/day | LEL (rat [9]): 150 mg/kg/day | LOAEL (rat [9]): 150 mg/kg/day | NEL (rat [9]): < 150 mg/kg/day | NOAEL (rat [9]): < 150 mg/kg/day
